The values below come from paper PMC10610494, “Anticancer Peptides Derived from Aldolase A and Induced Tumor-Suppressing Cells Inhibit Pancreatic Ductal Adenocarcinoma Cells” (Pharmaceutics, 2023).

The subject of data set [1] is PANC1 cells. Description: MTT-based viability assay. It counts as cell-based, human. The following applies: for IC50: Homo sapiens. On the procedure: (§1) MTT-based assessment of metabolic activity involved seeding approximately 2000 cells into 96-well plates. These cells were subsequently incubated with treatment agents for two days. On day 4, the cells were subjected to staining with 0.5 mg/mL thiazolyl blue tetrazolium bromide (M5655, Sigma). The determination of metabolic activity was based on the measurement of optical density at 562 nm. For the evaluation of proliferation activity using the EdU assay, around 1000 cells were seeded into 96-well plates. A fluorescence-based cell proliferation kit (Click-iT™ EdU Alexa Fluor™ 488 Imaging Kit; Thermo Fisher, Waltham, MA, USA) was employed, following the manufacturer’s protocol. This kit facilitated the detection of EdU incorporation as an indicator of proliferating cells.

The subject of data set [2] is human PDAC tissue fragments. Kind of data set: Ex vivo PDAC tissue fragment assay. In kind it is cell-based. From the text:
The utilization of human pancreatic cancer tissue was approved by the Indiana University Institutional Review Board (1911155674), and the tissue samples were sourced from the Indiana University Simon Comprehensive Cancer Center Tissue Procurement Core. A freshly procured pancreatic cancer tissue, weighing approximately 1 g, was manually sectioned into small fragments (ranging from 0.5 to 0.8 mm in length) using a scalpel. These fragments were subsequently cultured in DMEM supplemented with 10% FBS and antibiotics for one day. Following this initial incubation, the described conditioned medium (CM) was introduced and maintained for an additional four days, during which any alterations in fragment size were assessed.

For data set [3], the system named is PANC1 cells. Kind of data set: Wound-healing scratch assay (motility). It counts as cell-based, human. To be noted: 25 μg/mL peptide, 0 h vs 24 h. The procedure: To analyze the two-dimensional migratory behavior of PANC cells, a wound-healing scratch assay was employed to assess the change in the scratched area. Around 3 × 10^5 cells were seeded into 12-well plates on day 1. On day 2, a scratch was carefully created on the cell layer using the tip of a plastic pipette. The cells were then rinsed with DMEM to eliminate any detached cells. Images of the cell-free areas were captured at both 0 h and 24 h using a light microscope (40× magnification). The sizes of the cell-free zones were subsequently quantified using Image J (v1.5.4f).

The subject of data set [4] is K-Ras. Kind of data set: Western blot analysis. In kind it is cell-based, human. The procedure: (§2) Cell lysis was achieved using RIPA lysis buffer (sc-24948, Santa Cruz Biotech, Dallas, TX, USA), supplemented with protease inhibitors (PIA32963, Thermo Fisher), and phosphatase inhibitors (2006643, Calbiochem, Billerica, MA, USA). Subsequently, proteins were separated using 10–15% SDS gels (Bio-Rad Laboratories, Hercules, CA, USA) and then transferred onto polyvinylidene difluoride membranes (IPVH00010, Millipore, Billerica, MA, USA). The membrane was first incubated with primary antibodies, followed by secondary antibodies (7074S/7076S, Cell Signaling, Danvers, MA, USA). Antibodies against ALDOA, Snail, p-Src, Src, cleaved caspase 3, caspase 3 (Cell Signaling), and K-Ras (Santa Cruz Biotech) were employed, with β-actin (Sigma) serving as a control. Protein levels were determined utilizing the Super-Signal West Femto Maximum Sensitivity Substrate (PI34096, Thermo Fisher), and signal intensities were quantified using a luminescent image analyzer (LAS-3000, Fuji Film, Tokyo, Japan).

Data set [5] concerns cleaved caspase 3. Kind of data set: Western blot analysis. In kind it is cell-based, human. To be noted: 25 μg/mL P04. On the procedure:
as §2

For data set [6], the system named is p-Src. Kind of data set: Western blot analysis. It counts as cell-based, human. The following applies: 25 μg/mL P04. The procedure:
as §2

Data set [7] relates to Snail. Description: Western blot analysis. It counts as cell-based, human. The following applies: 25 μg/mL P04. On the procedure:
as §2

For data set [8], the system named is ALDOA. Kind of data set: Western blot analysis. In kind it is cell-based, human. On the procedure: as §2
Data set [9] concerns MSCs. Kind of data set: MTT-based viability of MSCs. It counts as cell-based, mice. To be noted: P04; assay not specified, no data shown. On the procedure:
Human pancreatic ductal adenocarcinoma (PDAC) cell lines including PANC1 (ATCC, Manassas, VA, USA), PANC198, and Pa03C (sourced from Indiana University Simon Comprehensive Cancer Center, Indianapolis, IN, USA) were cultured in DMEM (10-013-CV, Corning Inc., Corning, NY, USA). The breast cancer cell lines MDA-MB-231 and MDA-MB-436 (ATCC) were grown in RPMI-1640 medium (Gibco, Carlsbad, CA, USA). The culture media for all cell lines were supplemented with 10% fetal bovine serum and antibiotics (100 units/mL penicillin and 100 µg/mL streptomycin; Life Technologies, Grand Island, NY, USA). Jurkat T lymphocytes (ATCC) were cultured in RPMI-1640 medium (10-040-CV, Corning). Murine MSCs derived from the bone marrow of C57BL/6 mice were cultured in DMEM. All cell cultures were maintained at 37 °C with 5% CO2. The overexpression of ALDOA was accomplished by transfecting its plasmids (109,854; Addgene, Cambridge, MA, USA), while blank plasmids (FLAG-HA-pcDNA3.1; Addgene) were employed as controls.
MTT-based assessment of metabolic activity involved seeding approximately 2000 cells into 96-well plates. These cells were subsequently incubated with treatment agents for two days. […] A fluorescence-based cell proliferation kit (Click-iT™ EdU Alexa Fluor™ 488 Imaging Kit; Thermo Fisher, Waltham, MA, USA) was employed, following the manufacturer’s protocol. […]

Data set [10] deals with PANC1 cells. Kind of data set: Transwell invasion assay. The following applies: 25 μg of P04. In kind it is cell-based, human. On the procedure:
To assess the invasive potential of tumor cells, a 12-well plate and transwell chambers (353,182, Thermo Fisher) featuring 8-µm pore size were employed. The transwell chambers were pre-coated with 300 µL of Matrigel (100 µg/mL), followed by the addition of 500 µL of serum-free medium. Afterward, the chambers were rinsed three times with a serum-free medium. Subsequently, approximately 7 × 10^4 cells in 300 µL of serum-free DMEM were introduced into the upper chamber, while 800 µL of the conditioned medium (CM) was added to the lower chamber. Upon completion of the experiment, cells that had invaded the lower side of the membrane were fixed and stained using methanol and crystal violet. Utilizing an inverted optical microscope (100×), five randomly selected images were captured. From these images, the average count of stained cells, serving as an indicator of the invasion capacity, was determined.

For data set [11], the system named is PANC1 cells. Kind of data set: EdU proliferation assay. In kind it is cell-based, human. The following applies: 25 μg of P04. On the procedure: as §1
Data set [12] has as its system PAN198 cells. Description: MTT-based viability assay. The following applies: 25 μg/mL peptide, incubated two days, vs control. In kind it is cell-based, human. The procedure: as §1
Data set [13] has as its system PA03C cells. Description: MTT-based viability assay. In kind it is cell-based, human. To be noted: 25 μg/mL peptide, incubated two days, vs control. On the procedure: as §1
[14] abbreviates: PANC-1, chemotherapeutic agent alone.
Setting [15] is: PANC-1, chemotherapeutic agent together with 25 μg/mL P04.
The mark [16] stands for this setting: following administration of rhALDOA.

With `O=c1[nH]cc(F)c(=O)[nH]1` [5-Flu, 5-fluorouracil], the IC50 in data set [1] (setting [14]) was 3300 nM; in data set [1] (setting [15]) it was 1600 nM. For the same molecule, the PDAC fragment size entry in [2] (10 μM 5-Flu alone, 96 h, n = 8) was “reduction”.

`Nc1ccn([C@@H]2O[C@H](CO)[C@@H](O)C2(F)F)c(=O)n1` [gemcitabine]: the IC50 in data set [1] (setting [14]) stood at 1000 nM; in data set [1] (setting [15]), 800 nM.

As for “IGEHTPSALAIMENANVLAR [P04, anticancer peptide derived from aldolase A (ALDOA)]”, the “scratch-based motility of PANC1 cells” value in [3] was “reduction”. In addition, in data set [4] (PANC1 cells, 25 μg/mL P04), the K-Ras level result is “discernible reduction”. Also, the entries for the “cleaved caspase 3 level” value in data set [5] (PAN198 cells) and in data set [5] (PANC1 cells) were “increase” and “elevation”, respectively. Besides, the p-Src level result in [6] (PAN198 cells) and in data set [6] (PANC1 cells) was “downregulation” throughout. Besides, the Snail level result in [7] (PAN198 cells) and in data set [7] (PANC1 cells) was “downregulation” each time. Moreover, the ALDOA level result in [8] (PANC1 cells, 25 μg/mL P04) is listed as “decrease”. In addition, the “inhibitory effect on mesenchymal stem cells (MSC growth)” value in data set [9] was “no inhibitory effect”. Also, the “transwell-based invasion of PANC1 cells” value in data set [10] is on record as “discernible decrease”. For the same molecule, in data set [11], the “EdU-based proliferation of PANC1 cells” value was “discernible decrease”. The “MTT-based viability of PAN198 cells” value in [12] was “reduction”. Further, the “MTT-based viability of PANC1 cells” value in [1] (25 μg/mL peptide, incubated two days, vs control) is listed as “reduction”. Further, in [13], the “MTT-based viability of PA03C cells” value is reported as “reduction”. The PDAC fragment size entry in [2] (25 μg/mL P04, 96 h, n = 8, patient tissue ex vivo) was “notable reduction”.

B1: rhALDOA: human recombinant ALDOA protein (MBS8248528, MyBioSource) (protein, UniProt P04075 2-364, looked up)
Fructose-bisphosphate …: PYQYPALTPEQKKELSDIAHRIVAPGKGILAADESTGSIAKRLQSIGTENTEENRRFYRQLLLTADDRVNPCIGGVILFHETLYQKADDGRPFPQVIKSKGGVVGIKVDKGVVPLAGTNGETTTQGLDGLSERCAQYKKDGADFAKWRCVLKIGEHTPSALAIMENANVLARYASICQQNGIVPIVEPEILPDGDHDLKRCQYVTEKVLAAVYKALSDHHIYLEGTLLKPNMVTPGHACTQKFSHEEIAMATVTALRRTVPPAVTGITFLSGGQSEEEASINLNAINKCPLLKPWALTFSYGRALQASALKAWGGKKENLKAAQEEYVKRALANSLACQGKYTPSGQAGAAASESLFVSNHAY
As for B1, the K-Ras level entry in data set [4] (setting [16]) was “discernible decreases”. For the same molecule, the ALDOA level result in data set [8] (setting [16]) is “discernible decreases”. For the same molecule, the “MTT-based viability of PANC1 cells” value in [1] (5 μg/mL recombinant ALDOA protein) was “notable reduction”.
